Measured values: patent publication US20250092039A1, “GLUTARIMIDE-CONTAINING PAN-KRAS-MUTANT DEGRADER COMPOUNDS AND USES THEREOF” (Tiger Biotherapeutics Inc., priority 2022, published 2025)
Where two headings read alike, the source gives them in different places.

Columns and labels:
KRAS-G12V/RAF1 = KRAS-G12V/RAF1 (Homo sapiens (Human), UniProt P01116, G12V); experiment: KRAS/RAF1 binding inhibition assay (AlphaScreen)
Method in brief: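 Binding of GppNHp-loaded KRAS G12V to the RAF1 RBD was measured by AlphaScreen with test compound present in 2% DMSO (final), 60 min incubation at 4° C. Signals were converted to % inhibition versus DMSO, and IC50 was obtained by variable-slope nonlinear regression.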

SW620 cells = experiment: 3D cell growth inhibition of SW620 cells carrying endogenous KRAS G12V mutation (CellTiter-Glo 3D, GI50); type: cell-based; conditions: Homo sapiens, SW-620, 144 h, read-out: SW620 3D cell growth GI50
Method in brief: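 SW620 cells (endogenous KRAS G12V) grown in 3D were dosed next day with compound from DMSO stocks at various concentrations, then incubated 6 days at 37° C.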

KRAS G12V = KRAS G12V (Homo sapiens (Human), UniProt P01116, G12V); experiment: KRAS G12V degradation in SW620 cells (Western blot, DC50); type: cell-based; conditions: 24 hours
Method in brief: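 SW620 cells (homozygous KRAS G12V) were treated with compound for 24 hours at 37° C. KRAS in lysates was measured by Western blot with fluorescent secondary antibodies and expressed relative to DMSO vehicle (100%). DC50 came from a four-parameter variable-slope dose-response fit.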

Chain of KRAS-G12V/RAF1 (P01116-2 other isoform, or with tags, fused parts or gaps G12V): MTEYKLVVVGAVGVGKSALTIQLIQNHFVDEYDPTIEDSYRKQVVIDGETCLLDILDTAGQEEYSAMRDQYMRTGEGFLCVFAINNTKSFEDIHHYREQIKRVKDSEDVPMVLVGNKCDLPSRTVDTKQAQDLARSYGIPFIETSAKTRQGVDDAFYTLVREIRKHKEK
Chain of KRAS G12V (P01116-2 other isoform, or with tags, fused parts or gaps G12V): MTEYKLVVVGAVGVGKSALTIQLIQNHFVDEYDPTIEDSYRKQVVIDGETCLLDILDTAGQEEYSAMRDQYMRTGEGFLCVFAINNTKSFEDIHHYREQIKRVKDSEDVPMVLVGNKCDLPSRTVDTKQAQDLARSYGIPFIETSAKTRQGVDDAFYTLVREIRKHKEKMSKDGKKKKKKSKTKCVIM

Row | SMILES | IC50 (KRAS-G12V/RAF1) [µM] | GI50 (SW620 cells; SW620 cells, 6 days) [µM] | DC50 (KRAS G12V) [µM] | GI50 (SW620 cells) [µM]
1 | C[C@@]1(O)CCCN(c2nc(OCC3(CN4CCC(CN5CCN(c6ccc7c(c6)CN([C@H]6CCC(=O)NC6=O)C7=O)CC5)CC4)CC3)nc3c(F)c(-c4cc(O)cc5cccc(Cl)c45)ncc23)C1 [Compound 123, (S)-3-(5-(4-((1-((1-(((7-(8-chloro-3-hydroxynaphthalen-1-yl)-8-fluoro-4-((R)-3-hydroxy-3-methylpiperidin-1-yl)pyrido[4,3-d]pyrimidin-2-yl)oxy)methyl)cyclopropyl)methyl)piperidin-4-yl)methyl)piperazin-1-yl)-1-oxoisoindolin-2-yl)piperidine-2,6-dione] | 0.02 to 0.2 | 0.01 to 0.1 | 0.001 to 0.01 | 
2 | CCc1c(F)ccc2cc(O)cc(-c3ncc4c(N5CCOCC6(CCO6)C5)nc(OCC5(CN6CCC7(CC6)CC(CN6CCN(c8ccc9c(c8)CN([C@H]8CCC(=O)NC8=O)C9=O)CC6)C7)CC5)nc4c3F)c12 (stereo partly drawn) [Compound 124, (3S)-3-(5-(4-((7-((1-(((7-(8-ethyl-7-fluoro-3-hydroxynaphthalen-1-yl)-8-fluoro-4-(1,6-dioxa-9-azaspiro[3.6]decan-9-yl)pyrido[4,3-d]pyrimidin-2-yl)oxy)methyl)cyclopropyl)methyl)-7-azaspiro[3.5]nonan-2-yl)methyl)piperazin-1-yl)-1-oxoisoindolin-2-yl)piperidine-2,6-dione] | 0.02 to 0.2 | < 0.01 | 0.001 to 0.01 | 
3 | CCc1c(F)ccc2cc(O)cc(-c3ncc4c(N5CCC[C@@](C)(O)C5)nc(OCC5(CN6CC7(CCC(CN8CCN(c9ccc%10c(c9)CN([C@H]9CCC(=O)NC9=O)C%10=O)CC8)CC7)C6)CC5)nc4c3F)c12 [Compound 126, (3S)-3-[5-[4-[[2-[[1-[[7-(8-ethyl-7-fluoro-3-hydroxy-1-naphthyl)-8-fluoro-4-[(3R)-3-hydroxy-3-methyl-1-piperidyl]pyrido[4,3-d]pyrimidin-2-yl]oxymethyl]cyclopropyl]methyl]-2-azaspiro[3.5]nonan-7-yl]methyl]piperazin-1-yl]-1-oxo-isoindolin-2-yl]piperidine-2,6-dione] | 0.02 to 0.2 | < 0.01 | 0.001 to 0.01 | 
4 | CCc1cccc2cc(O)cc(-c3ncc4c(N5CCNC(=O)CC5)nc(OCC5(CN6CCC7(CC6)CC(CN6CCN(c8ccc9c(c8)CN([C@H]8CCC(=O)NC8=O)C9=O)CC6)C7)CC5)nc4c3F)c12 [Compound 128, (S)-3-(5-(4-((7-((1-(((7-(8-ethyl-3-hydroxynaphthalen-1-yl)-8-fluoro-4-(5-oxo-1,4-diazepan-1-yl)pyrido[4,3-d]pyrimidin-2-yl)oxy)methyl)cyclopropyl)methyl)-7-azaspiro[3.5]nonan-2-yl)methyl)piperazin-1-yl)-1-oxoisoindolin-2-yl)piperidine-2,6-dione] | > 0.2 | > 0.1 | > 0.1 | 
5 | CCc1c(F)ccc2cc(O)cc(-c3ncc4c(N5CCC[C@@](C)(O)C5)nc(OCC5(CN6CCC7(CC6)CN(CC6CCN(c8ccc9c(c8)CN(C8CCC(=O)NC8=O)C9=O)CC6)C7)CC5)nc4c3F)c12 (stereo partly drawn) [Compound 131, 3-(5-(4-((7-((1-(((7-(8-ethyl-7-fluoro-3-hydroxynaphthalen-1-yl)-8-fluoro-4-((R)-3-hydroxy-3-methylpiperidin-1-yl)pyrido[4,3-d]pyrimidin-2-yl)oxy)methyl)cyclopropyl)methyl)-2,7-diazaspiro[3.5]nonan-2-yl)methyl)piperidin-1-yl)-1-oxoisoindolin-2-yl)piperidine-2,6-dione] | < 0.02 |  | < 0.001 | < 0.01
6 | CCc1c(F)ccc2cc(O)cc(-c3ncc4c(N5CCC[C@@](C)(O)C5)nc(OCC5(CN6CCN(CC7CN(c8ccc9c(c8)CN(C8CCC(=O)NC8=O)C9=O)C7)CC6)CC5)nc4c3F)c12 (stereo partly drawn) [Compound 133, 3-[5-[3-[[4-[[1-[[7-(8-ethyl-7-fluoro-3-hydroxy-1-naphthyl)-8-fluoro-4-[(3R)-3-hydroxy-3-methyl-1-piperidyl]pyrido[4,3-d]pyrimidin-2-yl]oxymethyl]cyclopropyl]methyl]piperazin-1-yl]methyl]azetidin-1-yl]-1-oxo-isoindolin-2-yl]piperidine-2,6-dione] | 0.02 to 0.2 |  | < 0.001 | < 0.01

The next lines start with results.

Row | IC50 (KRAS-G12V/RAF1) [µM] | GI50 (SW620 cells; SW620 cells, 6 days) [µM] | DC50 (KRAS G12V) [µM] | SMILES | GI50 (SW620 cells) [µM]
7 | 0.02 to 0.2 | 0.01 to 0.1 | < 0.001 | C[C@@]1(O)CCCN(c2nc(OCC3(CN4CCC5(CC4)CC(CN4CCN(c6ccc7c(c6)CN([C@H]6CCC(=O)NC6=O)C7=O)CC4)C5)CC3)nc3c(F)c(-c4cc(O)cc5cccc(Cl)c45)ncc23)C1 [Compound 129, (S)-3-(5-(4-((7-((1-(((7-(8-chloro-3-hydroxynaphthalen-1-yl)-8-fluoro-4-((R)-3-hydroxy-3-methylpiperidin-1-yl)pyrido[4,3-d]pyrimidin-2-yl)oxy)methyl)cyclopropyl)methyl)-7-azaspiro[3.5]nonan-2-yl)methyl)piperazin-1-yl)-1-oxoisoindolin-2-yl)piperidine-2,6-dione] | 
8 | 0.02 to 0.2 | < 0.01 | 0.001 to 0.01 | CCc1c(F)ccc2cc(O)cc(-c3ncc4c(N5CCC[C@@](C)(O)C5)nc(OCC5(CN6CC(N7CCN(c8ccc9c(c8)CN([C@H]8CCC(=O)NC8=O)C9=O)CC7)C6)CC5)nc4c3F)c12 [Compound 130, (S)-3-(5-(4-(1-((1-(((7-(8-ethyl-7-fluoro-3-hydroxynaphthalen-1-yl)-8-fluoro-4-((R)-3-hydroxy-3-methylpiperidin-1-yl)pyrido[4,3-d]pyrimidin-2-yl)oxy)methyl)cyclopropyl)methyl)azetidin-3-yl)piperazin-1-yl)-1-oxoisoindolin-2-yl)piperidine-2,6-dione] | 
9 | 0.02 to 0.2 | < 0.01 | 0.001 to 0.01 | C[C@@]1(O)CCCN(c2nc(OCC3(CN4CCC5(CC4)CC(CN4CCN(c6ccc7c(c6)CN([C@H]6CCC(=O)NC6=O)C7=O)CC4)C5)CC3)nc3c(F)c(-c4cc(N)cc(Cl)c4C(F)(F)F)ncc23)C1 [Compound 135, (S)-3-(5-(4-((7-((1-(((7-(5-amino-3-chloro-2-(trifluoromethyl)phenyl)-8-fluoro-4-((R)-3-hydroxy-3-methylpiperidin-1-yl)pyrido[4,3-d]pyrimidin-2-yl)oxy)methyl)cyclopropyl)methyl)-7-azaspiro[3.5]nonan-2-yl)methyl)piperazin-1-yl)-1-oxoisoindolin-2-yl)piperidine-2,6-dione] | 
10 | < 0.02 | 0.01 to 0.1 | < 0.001 | CCc1c(F)ccc2cc(O)cc(-c3ncc4c(N5CCC[C@@](C)(O)C5)nc(OCC5(CN6CC7(CCC(N8CCN(c9ccc%10c(c9)CN([C@H]9CCC(=O)NC9=O)C%10=O)CC8)CC7)C6)CC5)nc4c3F)c12 [Compound 136, (S)-3-(5-(4-(2-((1-(((7-(8-ethyl-7-fluoro-3-hydroxynaphthalen-1-yl)-8-fluoro-4-((R)-3-hydroxy-3-methylpiperidin-1-yl)pyrido[4,3-d]pyrimidin-2-yl)oxy)methyl)cyclopropyl)methyl)-2-azaspiro[3.5]nonan-7-yl)piperazin-1-yl)-1-oxoisoindolin-2-yl)piperidine-2,6-dione] | 
